Values after ≈ are worked out from the molar mass of the structure shown.
Assays:
RAW264.7 [1] = test: Anti-inflammatory activity in LPS-induced mouse RAW264.7 cells assessed as inhibition of TNF-alpha production at 10 uM incubated for 24 hrs by qRT-PCR analysis relative to control; assay type: functional; parameters: scale not given: the % may be the effect or the level left
RAW264.7 [2] = test: Anti-inflammatory activity in LPS-induced mouse RAW264.7 cells assessed as inhibition of IL-6 production at 10 uM incubated for 24 hrs by qRT-PCR analysis relative to control; assay type: functional; parameters: scale not given: the % may be the effect or the level left
HeLa = test: cells; details: Homo sapiens, 96 h
Description: Anticancer activity against human HeLa cells assessed as inhibition of cell growth incubated for 96 hrs by MTT assay

KB = test: Antitumor activity against human KB cells assessed as reduction in cell growth incubated for 96 hrs by MTT assay; assay type: functional, cell-based

Compound	Activity (RAW264.7 [1])	Activity (RAW264.7 [2])	further results
NC(=O)Nc1sc(-c2ccc(F)cc2)cc1C(N)=O	20%		
CC(C)Cc1ccc(C(C)C(=O)O)cc1 (stereo unspecified) [IBUPROFEN]	90%		
CN(Cc1cnc2nc(N)nc(N)c2n1)c1ccc(C(=O)N[C@@H](CCC(=O)O)C(=O)O)cc1 [METHOTREXATE]		78.5%	
COc1ccc2cc([C@H](C)C(=O)O)ccc2c1 [NAPROXEN]		65%	
CC(=O)O[C@H]1C(=O)[C@@]2(C)[C@H]([C@H](OC(=O)c3ccccc3)[C@]3(O)C[C@H](OC(=O)[C@H](O)[C@@H](NC(=O)c4ccccc4)c4ccccc4)C(C)=C1C3(C)C)[C@]1(OC(C)=O)CO[C@@H]1C[C@@H]2O [PACLITAXEL]			IC50 (HeLa): 0.9 µg/mL (≈ 1.05 µM); IC50 (KB): 0.18 µg/mL (≈ 0.211 µM)

From ChEMBL document CHEMBL6127022, “Acid-sensitive prodrugs; a promising approach for site-specific and targeted drug release” (Eur J Med Chem, 2024)
